Assay results from the METLIN SMRT retention time set (Domingo-Almenara et al. 2019).

Experiment: gradient 5% acetonitrile 3 min, to 50% in 2 min, to 85% in 15 min, held 3 min, 100 µL/min
Details: column: Zorbax Extend-C18 2.1 x 50 mm; eluents: water / acetonitrile, 0.1% formic acid
How it was run: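 Over 3 months, pure standards in mixtures of ~100 molecules were run by HPLC coupled to a quadrupole time-of-flight mass spectrometer in positive and negative ionization mode. The column was a Zorbax Extend-C18 (2.1 × 50 mm, 1.8 μm) at 100 μL/min, eluted with water and acetonitrile each holding 0.1% formic acid, with 40 μL dead and 900 μL dwell volumes. Retention time was determined from adduct peaks chosen by software and checked manually.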

| Structure (SMILES) | RP-LC retention time |
| --- | --- |
| CCNC(=O)c1cn(-c2ccc(SCC(=O)Nc3ccc(Cl)cc3F)nn2)cn1 | 702 s |
| COCCN1C(=O)c2ccccc2C(C(=O)Nc2cc(C)ccn2)C12CCCCC2 (stereo unspecified) | 745 s |
| CCn1cnc(S(=O)(=O)N2CCCC(C(=O)Nc3cccc(F)c3)C2)c1 (stereo unspecified) | 760 s |
| Cc1cc(C(=O)NCCN2CCOCC2)nc2cc(-c3ccccn3)nn12 | 693 s |
| Cc1cc2[nH]c(C(=O)Nc3ccccc3F)c(CN(C)C)c2s1 | 654 s |
| COc1ccc(-n2nnc(-c3nsc(Nc4ccc(Cl)cc4)n3)c2C)cc1 | 1060 s |
| COc1cccc(-n2c(=O)c3sccc3n(Cc3nc(-c4ccccc4Cl)no3)c2=O)c1 | 969 s |
| COc1cccc(N2N=NC3C(=O)N(c4ccc(OC)c(OC)c4)C(=O)C32)c1 (stereo unspecified) | 852 s |
| NS(=O)(=O)C#Cc1ccccc1 | 729 s |
| O=C(c1ccc(Nc2nn3c(=O)c4ccccc4nc3s2)cc1)N1CCN(c2ccccn2)CC1 | 622 s |
| CCc1ccc(NC(=O)N2CCCC(C)(C(=O)NCc3ccc(F)cc3)C2)cc1 (stereo unspecified) | 972 s |
| CC(C)C(=O)Nc1ccc2c(c1)N(C(=O)c1ccco1)CCC2 | 743 s |
| O=C(Nc1nnc(Cc2ccccc2)s1)C1CC(=O)N(c2n[nH]c3cccc(F)c23)C1 (stereo unspecified) | 745 s |
| Clc1ccc(C2(c3ccc(-c4cn[nH]c4)cc3)CCNCC2)cc1 | 680 s |
| Cc1cccc(CN2CCCn3nc(C(=O)NCCCOC(C)C)cc3C2=O)c1 | 842 s |
| CCCN1C(=O)c2cc(C(=O)NCc3cccc(C)c3)nn2CC1(C)C(=O)NC1CCCC1 (stereo unspecified) | 866 s |
| CCOC(=O)C1CCCN(C(=O)c2cc3c(=O)n(C)c(=O)n(C)c3s2)C1 (stereo unspecified) | 674 s |
| Cc1ccc(C(C)NC(=O)Cn2ccc3c(C)nn(C)c3c2=O)cc1C (stereo unspecified) | 784 s |

| Structure (SMILES) | RP-LC retention time |
| --- | --- |
| O=C(NC1CCCC1)C1CCCN(c2nc3ccsc3c(=O)n2Cc2ccccc2)C1 (stereo unspecified) | 895 s |
| COc1ccc(NC(=O)Nc2ccc3c(c2)CCN3S(=O)(=O)c2ccc(C)cc2)cc1 | 953 s |
| CC1CCN(C(=O)c2cc3c(s2)CCC(C(=O)N2CCOCC2)C3)CC1 (stereo unspecified) | 765 s |
| Cc1cccc(N2CCn3c2nc2c3c(=O)n(CC(=O)O)c(=O)n2C)c1 | 689 s |
| CCn1cc(-c2nc(C(=O)NCc3cccc(F)c3)cs2)c2cccnc21 | 983 s |
| CCc1noc(-c2nc(-c3ccc(OC)c(F)c3)no2)n1 | 926 s |
| O=C(c1cc2occc2c(Nc2ccc(Cl)cc2)n1)N1CCN(C(=O)c2ccco2)CC1 | 861 s |
| Cc1cc(C(N)=O)c2cc(F)ccc2n1 | 544 s |
| CC(=O)N1C[C@@H]2CCCN3CCC[C@@H]([C@H]23)[C@H]1CCCC(=O)NCC1CC1 | 562 s |
| Cc1ccc(Sc2nccnc2N2CCC(C(=O)N3CCOCC3)CC2)cc1 | 881 s |
| COC(=O)CNC(=O)NCCn1c(-c2ccc(F)cc2)nc2ccccc21 | 696 s |
| CCc1noc(-c2nnn3c2COC(c2ccc(OC)cc2)C3)n1 (stereo unspecified) | 941 s |
| Cc1ccc(Cl)cc1N1C(=O)CN(S(C)(=O)=O)CC1(C)C(=O)NC1CCCCCC1 (stereo unspecified) | 942 s |
| Cc1ccccc1CN1CC(=O)N(c2ccccc2)[C@@H]2CS(=O)(=O)C[C@@H]21 | 800 s |
| CCN1CCN(c2cc(C)c3cc(NC(=O)COc4ccccc4)ccc3n2)CC1 | 609 s |
| Cc1cccc(-c2noc(CN3N=NC4C(=O)N(c5cccc(Cl)c5)C(=O)C43)n2)c1 (stereo unspecified) | 1060 s |
| CCc1nnc2ccc(-c3noc(-c4ccccc4)n3)cn12 | 906 s |
| CCN(Cc1ccccc1)S(=O)(=O)c1ccc2c(c1)CCCC(=O)N2 | 856 s |

Results, then the molecule that gave them:

| RP-LC retention time | Structure (SMILES) |
| --- | --- |
| 651 s | CCOc1ccc(NC(=O)C2CCN(c3cncnc3N3CCOCC3)CC2)cc1 |
| 798 s | COC(=O)c1scc(-c2ccc(C)cc2)c1S(=O)(=O)N1CCC(C(N)=O)CC1 |
| 829 s | Cc1cc(C)n2c(Nc3cccc(C(F)(F)F)c3)c(-c3ccc(F)cc3)nc2n1 |
| 642 s | O=C1C(N2CCN(S(=O)(=O)c3ccccc3)CC2)CCN1CCc1ccccc1 (stereo unspecified) |
| 805 s | COc1ccc2c(c1)C=C(C(=O)NCc1ccc(OC)c(OC)c1)CO2 |
| 799 s | CCOc1ccccc1CN1C(=O)C2(CCOCC2)CC1c1nnnn1C(C)(C)C (stereo unspecified) |
| 702 s | O=C(c1cn2ccnc(-c3ccccc3)c2n1)N1CCN(c2ncccn2)CC1 |
| 657 s | COc1cc(NC(=O)NCCc2cn(C)c3ncccc23)cc(OC)c1 |
| 859 s | CCCN(CC(=O)N1CCc2sccc2C1COc1ccc(F)cc1)C(=O)NCC (stereo unspecified) |
| 790 s | COc1cccc(-c2cc(C3CCN(C(=O)NC4CCCC4)CC3)[nH]n2)c1 |
| 619 s | CN(C)CCNC(=O)CN1C(=O)C2CCCCN2c2ccc(C(=O)N3CCCCC3)cc21 (stereo unspecified) |
| 721 s | O=C(Cc1nnc(-c2ccc3ncccc3c2)o1)NCc1ccc(Cl)cc1 |
| 887 s | COc1ccc(Cl)cc1NC(=O)Cn1cccc(-c2nc(-c3ccc(OC)c(OC)c3)no2)c1=O |
| 776 s | Cc1nc(NC(=O)N2CCC[C@H]2C(N)=O)sc1-c1csc(C(C)(C)C)n1 |
| 883 s | Cc1cc(Cl)ccc1NC(=O)N1C[C@@H]2C[C@H]1C[C@@H]2NS(=O)(=O)c1ccccc1 |
| 986 s | Cc1nnc(-c2cccc(Cl)c2)nc1N1CCC(C)CC1 |
| 773 s | CCc1onc(C)c1C1CCCN1C(=O)c1c(Cl)cnn1CC (stereo unspecified) |
| 700 s | Cc1nn(C(C)C(=O)NCCCN2CCCCC2)c(=O)c2c(-n3cccc3)n(-c3ccccc3)nc12 (stereo unspecified) |
| 799 s | CC1=C(c2cccc(Cl)c2)S(=O)(=O)N=C1N1CCC(NC(=O)c2ccoc2)CC1 |
| 600 s | COc1ccc(C(=O)CN(Cc2ccccc2)C2=NCCS2)cc1 |
| 1110 s | Cc1cc(C)cc(NC(=O)Cn2nc(N3CCCCCC3)c3ccccc3c2=O)c1 |
| 681 s | CCN(CC)C(=O)c1ccc2nc(-c3ccc(Cl)cc3)cn2c1 |
| 1020 s | Cc1ccc(-c2ccc(=O)n(Cc3nc(-c4ccc5c(c4)OCO5)no3)n2)cc1 |
| 855 s | COc1ccc(-c2cc(C(F)(F)F)n3nc(C(=O)O)c(Cl)c3n2)cc1OC |
| 744 s | COc1ccc2c(C)c(CCC(=O)N[C@H](C(=O)O)c3ccccc3)c(=O)oc2c1 |
| 654 s | Cc1ccc(F)c(NS(=O)(=O)c2cc3n(c2)CCCNC3=O)c1 |
| 702 s | O=C(Cc1nnc(-c2ccc3ncccc3c2)o1)NCCc1ccccc1 |
| 679 s | Cc1cc(=O)n(CC(=O)N2CCc3ccccc32)c(N2CCCCC2)n1 |
| 718 s | O=C(c1cn2ccccc2n1)N1CCN(c2cccc(Cl)c2)CC1 |
| 558 s | O=C(NCCN1CCOCC1)c1cc2cc(Cl)ccc2o1 |
